Results as given in PMC5218480 (PLoS ONE, 2017).

Test system: MV-4-11 cells
Test: Gene expression microarray analysis (Affymetrix PrimeView) and GSEA
Type: cell-based, human
Parameters: RFU PODN (11730768_x_at) / Fold change /veh PODN (11730768_x_at) / RFU LINC00158 (11744669_a_at) / Fold change /veh LINC00158 (11744669_a_at) / RFU DUSP10 (11751237_a_at) / Fold change /veh DUSP10 (11751237_a_at) / RFU ID3 (11757404_x_at) / Fold change /veh ID3 (11757404_x_at) / RFU PLEKHG5 (11737974_s_at) / Fold change /veh PLEKHG5 (11737974_s_at) / RFU LRRC4B (11730491_at) / Fold change /veh LRRC4B (11730491_at) / RFU GIMAP4 (11747438_a_at) / Fold change /veh GIMAP4 (11747438_a_at) / RFU KRT8 (11758183_x_at) / Fold change /veh KRT8 (11758183_x_at) / RFU CNN1 (11734310_a_at) / Fold change /veh CNN1 (11734310_a_at) / RFU VPS37D (11726825_at) / Fold change /veh VPS37D (11726825_at) / RFU C10orf10 (11716522_x_at) / Fold change /veh C10orf10 (11716522_x_at) / RFU KIR2DL2 /// KIR2DL4 /// KIR2DL5A /// KIR2DL5B /// KIR2DS1 /// KIR2DS2 /// KIR2DS3 /// KIR2DS4 /// KIR3DL3 /// KIR3DL3 /// KIR3DS1 (11738374_at) / Fold change /veh KIR2DL2 /// KIR2DL4 /// KIR2DL5A /// KIR2DL5B /// KIR2DS1 /// KIR2DS2 /// KIR2DS3 /// KIR2DS4 /// KIR3DL3 /// KIR3DL3 /// KIR3DS1 (11738374_at) / RFU C1QL1 (11718748_at) / Fold change /veh C1QL1 (11718748_at) / RFU TMPRSS4 (11747572_a_at) / Fold change /veh TMPRSS4 (11747572_a_at) / RFU HAMP (11756126_x_at) / Fold change /veh HAMP (11756126_x_at) / RFU RNFT2 (11725882_a_at) / Fold change /veh RNFT2 (11725882_a_at) / RFU NR4A2 (11747474_a_at) / Fold change /veh NR4A2 (11747474_a_at) / RFU ABCC12 (11746883_a_at) / Fold change /veh ABCC12 (11746883_a_at) / RFU TMEM136 (11760407_x_at) / Fold change /veh TMEM136 (11760407_x_at) / RFU CLDN22 /// WWC2 (11732394_at) / Fold change /veh CLDN22 /// WWC2 (11732394_at) / RFU HLA-DPB1 (11760878_x_at) / Fold change /veh HLA-DPB1 (11760878_x_at) / RFU SPINT1 (11716480_a_at) / Fold change /veh SPINT1 (11716480_a_at) / RFU GAP43 (11754022_s_at) / Fold change /veh GAP43 (11754022_s_at) / RFU A4GNT (11735810_at) / Fold change /veh A4GNT (11735810_at) / RFU PRB3 (11715151_x_at) / Fold change /veh PRB3 (11715151_x_at) / RFU TUBB4B (11761932_at) / Fold change /veh TUBB4B (11761932_at) / RFU CAPN14 (11732068_a_at) / Fold change /veh CAPN14 (11732068_a_at) / RFU TMCC2 (11721928_a_at) / Fold change /veh TMCC2 (11721928_a_at) / RFU IRGQ (11745062_a_at) / Fold change /veh IRGQ (11745062_a_at) / RFU FAM174B (11720279_a_at) / Fold change /veh FAM174B (11720279_a_at) / RFU TMPRSS4 (11748680_a_at) / Fold change /veh TMPRSS4 (11748680_a_at) / RFU FAM212B (11763350_a_at) / Fold change /veh FAM212B (11763350_a_at) / RFU PLEKHG5 (11743358_a_at) / Fold change /veh PLEKHG5 (11743358_a_at) / RFU ZSCAN30 (11745921_a_at) / Fold change /veh ZSCAN30 (11745921_a_at) / RFU CMKLR1 (11741424_a_at) / Fold change /veh CMKLR1 (11741424_a_at) / RFU LOC101060620 /// MAPK8IP1 (11723275_at) / Fold change /veh LOC101060620 /// MAPK8IP1 (11723275_at) / RFU SPTSSB (11747773_x_at) / Fold change /veh SPTSSB (11747773_x_at) / RFU PRSS12 (11739890_at) / Fold change /veh PRSS12 (11739890_at) / RFU BIN1 (11741810_x_at) / Fold change /veh BIN1 (11741810_x_at) / RFU WNT11 (11732464_a_at) / Fold change /veh WNT11 (11732464_a_at) / RFU C10orf10 (11716521_a_at) / Fold change /veh C10orf10 (11716521_a_at) / RFU C5orf56 (11738089_at) / Fold change /veh C5orf56 (11738089_at) / RFU CYB561 (11721691_x_at) / Fold change /veh CYB561 (11721691_x_at) / RFU ANKRD19P (11752326_a_at) / Fold change /veh ANKRD19P (11752326_a_at) / RFU OR2T12 /// OR2T33 /// OR2T8 (11738714_s_at) / Fold change /veh OR2T12 /// OR2T33 /// OR2T8 (11738714_s_at) / RFU VCAN (11748164_a_at) / Fold change /veh VCAN (11748164_a_at) / RFU JSRP1 (11732532_at) / Fold change /veh JSRP1 (11732532_at) / RFU KRTAP10-11 (11738290_x_at) / Fold change /veh KRTAP10-11 (11738290_x_at) / RFU MYO3A (11730013_a_at) / Fold change /veh MYO3A (11730013_a_at) / RFU EBF3 (11725865_a_at) / Fold change /veh EBF3 (11725865_a_at) / RFU CAMK2N1 (11719241_x_at) / Fold change /veh CAMK2N1 (11719241_x_at) / RFU C5orf56 (11738088_a_at) / Fold change /veh C5orf56 (11738088_a_at) / RFU OLFML3 (11715873_a_at) / Fold change /veh OLFML3 (11715873_a_at) / RFU LOC100653217 /// NTM (11731650_a_at) / Fold change /veh LOC100653217 /// NTM (11731650_a_at) / RFU MAPK11 (11762145_a_at) / Fold change /veh MAPK11 (11762145_a_at) / RFU FIZ1 (11724087_x_at) / Fold change /veh FIZ1 (11724087_x_at) / RFU OASL (11726364_x_at) / Fold change /veh OASL (11726364_x_at) / RFU SOX15 (11748057_x_at) / Fold change /veh SOX15 (11748057_x_at) / RFU CD79A (11719716_a_at) / Fold change /veh CD79A (11719716_a_at) / RFU HIST1H1D (11736915_at) / Fold change /veh HIST1H1D (11736915_at) / RFU CASKIN2 (11723855_a_at) / Fold change /veh CASKIN2 (11723855_a_at) / RFU LOC730098 (11760151_x_at) / Fold change /veh LOC730098 (11760151_x_at) / RFU OR4N2 (11742367_at) / Fold change /veh OR4N2 (11742367_at) / RFU PRRT2 (11749266_a_at) / Fold change /veh PRRT2 (11749266_a_at) / RFU SNX32 (11753110_a_at) / Fold change /veh SNX32 (11753110_a_at) / RFU CDHR5 (11726645_a_at) / Fold change /veh CDHR5 (11726645_a_at) / RFU RCAN1 (11760418_a_at) / Fold change /veh RCAN1 (11760418_a_at) / RFU FAM167A (11723789_a_at) / Fold change /veh FAM167A (11723789_a_at) / RFU FAM26E (11764081_at) / Fold change /veh FAM26E (11764081_at) / RFU ISYNA1 (11749810_s_at) / Fold change /veh ISYNA1 (11749810_s_at) / RFU ACY1 (11761880_at) / Fold change /veh ACY1 (11761880_at) / RFU 11764098_at / Fold change /veh 11764098_at / RFU SAMD14 (11745864_x_at) / Fold change /veh SAMD14 (11745864_x_at) / RFU NPB (11741838_a_at) / Fold change /veh NPB (11741838_a_at) / RFU TMPRSS6 (11731388_a_at) / Fold change /veh TMPRSS6 (11731388_a_at) / RFU KRTAP10-2 (11738614_at) / Fold change /veh KRTAP10-2 (11738614_at) / RFU ARHGAP8 /// PRR5-ARHGAP8 (11727945_x_at) / Fold change /veh ARHGAP8 /// PRR5-ARHGAP8 (11727945_x_at) / RFU KRTAP5-7 /// NADSYN1 (11734609_at) / Fold change /veh KRTAP5-7 /// NADSYN1 (11734609_at) / RFU RASL12 (11751679_a_at) / Fold change /veh RASL12 (11751679_a_at) / RFU CDKN2B (11736163_a_at) / Fold change /veh CDKN2B (11736163_a_at) / RFU PRF1 (11729649_at) / Fold change /veh PRF1 (11729649_at) / RFU, ZNF638 /// ZNF638-IT1 / Fold change vs veh, ZNF638 /// ZNF638-IT1 / RFU, PANK3 / Fold change vs veh, PANK3 / RFU, SH3YL1 / Fold change vs veh, SH3YL1 / RFU, ZEB2 / Fold change vs veh, ZEB2 / RFU, NRIP1 / Fold change vs veh, NRIP1 / RFU, PTTG1IP / Fold change vs veh, PTTG1IP / RFU, CAPN2 / Fold change vs veh, CAPN2 / RFU, MED14 / Fold change vs veh, MED14 / RFU, SNORA58 / Fold change vs veh, SNORA58 / RFU, C1orf63 / Fold change vs veh, C1orf63 / RFU, LRRFIP1 / Fold change vs veh, LRRFIP1 / RFU, NDUFAF7 / Fold change vs veh, NDUFAF7 / RFU, SLC12A2 / Fold change vs veh, SLC12A2 / RFU, IBTK / Fold change vs veh, IBTK / RFU, ESF1 / Fold change vs veh, ESF1 / Fold change vs veh, TMEM50B / RFU, TAOK1 / Fold change vs veh, TAOK1 / RFU, ACBD3 / Fold change vs veh, ACBD3 / RFU, TMA16 / Fold change vs veh, TMA16 / RFU, RWDD3 / Fold change vs veh, RWDD3 / RFU, BCAT1 / Fold change vs veh, BCAT1 / RFU, EDEM3 / Fold change vs veh, EDEM3 / RFU, TMEM33 / Fold change vs veh, TMEM33 / RFU, WDR75 / Fold change vs veh, WDR75 / RFU, AHCTF1 / Fold change vs veh, AHCTF1 / RFU, TFRC / Fold change vs veh, TFRC / RFU, ZDHHC17 / Fold change vs veh, ZDHHC17 / RFU, NOM1 / Fold change vs veh, NOM1 / RFU, ARL8B / Fold change vs veh, ARL8B / RFU, ZBTB11 / Fold change vs veh, ZBTB11 / RFU, TAMM41 / Fold change vs veh, TAMM41 / RFU, KIAA1704 /// LOC100996395 / Fold change vs veh, KIAA1704 /// LOC100996395 / RFU, ING1 / Fold change vs veh, ING1 / RFU, TRMT61B / Fold change vs veh, TRMT61B / RFU, FUBP3 / Fold change vs veh, FUBP3 / RFU, TP53 / Fold change vs veh, TP53 / RFU, TNKS2 / Fold change vs veh, TNKS2 / RFU, ZFP14 / Fold change vs veh, ZFP14 / RFU, ACTR2 / Fold change vs veh, ACTR2 / RFU, PPP3R1 / Fold change vs veh, PPP3R1 / RFU, PIK3R1 / Fold change vs veh, PIK3R1 / RFU, HNRNPA1 / Fold change vs veh, HNRNPA1 / RFU, RNF170 / Fold change vs veh, RNF170 / RFU, ZNF28 / Fold change vs veh, ZNF28 / RFU, RNGTT / Fold change vs veh, RNGTT / RFU, OGT / Fold change vs veh, OGT / RFU, BRD1 / Fold change vs veh, BRD1 / RFU, MARS / Fold change vs veh, MARS / RFU, ZNF655 / Fold change vs veh, ZNF655 / RFU, FAHD1 / Fold change vs veh, FAHD1 / RFU, BDP1 / Fold change vs veh, BDP1 / RFU, LRRCC1 / Fold change vs veh, LRRCC1 / RFU, ARID1A / Fold change vs veh, ARID1A / RFU, ZNF146 / Fold change vs veh, ZNF146 / RFU, ZNF330 / Fold change vs veh, ZNF330 / RFU, GPN3 / Fold change vs veh, GPN3 / RFU, C9orf123 / Fold change vs veh, C9orf123 / RFU, N4BP2L2 / Fold change vs veh, N4BP2L2 / RFU, ARFIP1 / Fold change vs veh, ARFIP1 / RFU, FAM179B / Fold change vs veh, FAM179B / RFU, BCL10 / Fold change vs veh, BCL10 / RFU, UHRF1BP1L / Fold change vs veh, UHRF1BP1L / RFU, BET1 / Fold change vs veh, BET1 / RFU, CNOT2 / Fold change vs veh, CNOT2 / RFU, ZNF268 / Fold change vs veh, ZNF268 / Fold change vs veh, ZNF507 / RFU, DGCR2 / Fold change vs veh, DGCR2 / RFU, WDSUB1 / Fold change vs veh, WDSUB1 / Fold change vs veh, HSP90B1 /// MIR3652 / RFU, ADSS / Fold change vs veh, ADSS / RFU, GK / Fold change vs veh, GK / RFU, ZNF148 / Fold change vs veh, ZNF148 / RFU, TAF9 / Fold change vs veh, TAF9 / RFU, SLC1A5 / Fold change vs veh, SLC1A5 / RFU, SLMO2 / Fold change vs veh, SLMO2 / RFU, ABCC4 / Fold change vs veh, ABCC4 / RFU, LOC101060439 /// RAP1B / Fold change vs veh, LOC101060439 /// RAP1B / RFU, RFX7 / Fold change vs veh, RFX7 / RFU, GTPBP10 / Fold change vs veh, GTPBP10 / RFU, CNEP1R1 / Fold change vs veh, CNEP1R1 / RFU, BIVM-ERCC5 /// ERCC5 / Fold change vs veh, BIVM-ERCC5 /// ERCC5 / RFU, ILF3 / Fold change vs veh, ILF3 / RFU 11762660_at / Fold change /veh 11762660_at / RFU VCAN (11757783_s_at) / Fold change /veh VCAN (11757783_s_at) / RFU DDX43 (11728927_at) / Fold change /veh DDX43 (11728927_at) / RFU KRT8 (11758188_x_at) / Fold change /veh KRT8 (11758188_x_at) / RFU NKD1 (11759106_at) / Fold change /veh NKD1 (11759106_at) / RFU SRD5A1 (11742802_a_at) / Fold change /veh SRD5A1 (11742802_a_at) / RFU TPSAB1 /// TPSB2 (11721975_s_at) / Fold change /veh TPSAB1 /// TPSB2 (11721975_s_at) / RFU GSTM3 (11746129_a_at) / Fold change /veh GSTM3 (11746129_a_at) / RFU IL23R (11737362_x_at) / Fold change /veh IL23R (11737362_x_at) / RFU TMEM51 (11727254_a_at) / Fold change /veh TMEM51 (11727254_a_at) / RFU PIWIL2 (11732686_x_at) / Fold change /veh PIWIL2 (11732686_x_at) / RFU ORM1 (11744905_x_at) / Fold change /veh ORM1 (11744905_x_at) / RFU CCDC152 (11743942_at) / Fold change /veh CCDC152 (11743942_at) / RFU ECM1 (11717891_a_at) / Fold change /veh ECM1 (11717891_a_at) / RFU IL23R (11748794_a_at) / Fold change /veh IL23R (11748794_a_at) / RFU TNFAIP8L3 (11732012_x_at) / Fold change /veh TNFAIP8L3 (11732012_x_at) / RFU MBOAT4 (11741988_at) / Fold change /veh MBOAT4 (11741988_at) / RFU 11764193_at / Fold change /veh 11764193_at / RFU TMEM53 (11763286_at) / Fold change /veh TMEM53 (11763286_at) / RFU MAGEB2 (11727129_at) / Fold change /veh MAGEB2 (11727129_at) / RFU TMEM200A (11744735_a_at) / Fold change /veh TMEM200A (11744735_a_at) / RFU CCDC152 (11751479_a_at) / Fold change /veh CCDC152 (11751479_a_at) / RFU FAM211A (11726209_a_at) / Fold change /veh FAM211A (11726209_a_at) / RFU RGS16 (11746705_a_at) / Fold change /veh RGS16 (11746705_a_at) / RFU VCAN (11755009_s_at) / Fold change /veh VCAN (11755009_s_at) / RFU RHOB (11743442_s_at) / Fold change /veh RHOB (11743442_s_at) / RFU RGS16 (11720943_a_at) / Fold change /veh RGS16 (11720943_a_at) / RFU RGS16 (11720944_at) / Fold change /veh RGS16 (11720944_at) / RFU, VPS4B / Fold change vs veh, VPS4B / RFU, CREB1 / Fold change vs veh, CREB1 / RFU, DNAJC13 / Fold change vs veh, DNAJC13 / RFU, GNAQ / Fold change vs veh, GNAQ / RFU, CDK5R1 / Fold change vs veh, CDK5R1 / RFU, ZRANB3 / Fold change vs veh, ZRANB3 / RFU, CUL4A / Fold change vs veh, CUL4A / RFU, CCNY / Fold change vs veh, CCNY / RFU, UFL1 / Fold change vs veh, UFL1 / RFU, COG3 / Fold change vs veh, COG3 / RFU, DIAPH2 / Fold change vs veh, DIAPH2 / RFU, SKA2 / Fold change vs veh, SKA2 / RFU, AFF3 / Fold change vs veh, AFF3 / RFU, LMF1 / Fold change vs veh, LMF1 / RFU, IPO11 / Fold change vs veh, IPO11 / RFU, DFFB / Fold change vs veh, DFFB / RFU, FOXP1 / Fold change vs veh, FOXP1 / RFU, CARD8 / Fold change vs veh, CARD8 / RFU, STRN3 / Fold change vs veh, STRN3 / RFU, ADK / Fold change vs veh, ADK / RFU, RASSF2 / Fold change vs veh, RASSF2 / RFU, WIPF1 / Fold change vs veh, WIPF1 / RFU, LARP1B / Fold change vs veh, LARP1B / RFU, RASA1 / Fold change vs veh, RASA1 / RFU, RB1 / Fold change vs veh, RB1 / RFU, PPFIA1 / Fold change vs veh, PPFIA1 / RFU, MAT2A / Fold change vs veh, MAT2A / RFU, CCT5 / Fold change vs veh, CCT5 / RFU, WDR92 / Fold change vs veh, WDR92 / RFU, CUX1 / Fold change vs veh, CUX1 / RFU, TTC7A / Fold change vs veh, TTC7A / RFU, TMEM135 / Fold change vs veh, TMEM135 / RFU, DEPTOR / Fold change vs veh, DEPTOR / RFU, CPM / Fold change vs veh, CPM / RFU, DNAJB6 / Fold change vs veh, DNAJB6 / RFU, CACNA2D3 / Fold change vs veh, CACNA2D3 / RFU, DTX4 / Fold change vs veh, DTX4 / RFU, TFCP2 / Fold change vs veh, TFCP2 / RFU, GMCL1 /// GMCL1P1 / Fold change vs veh, GMCL1 /// GMCL1P1 / RFU, AEBP2 / Fold change vs veh, AEBP2 / RFU, SNHG1 /// SNORD22 /// SNORD25 /// SNORD26 /// SNORD27 /// SNORD28 /// SNORD29 /// SNORD31 / Fold change vs veh, SNHG1 /// SNORD22 /// SNORD25 /// SNORD26 /// SNORD27 /// SNORD28 /// SNORD29 /// SNORD31 / Fold change (Aza/veh), C12orf56 (ProbeSet 11735607_a_at) / Fold change (ACY-1035/veh), C12orf56 (ProbeSet 11735607_a_at) / Fold change (Aza/veh), FGFR1OP (ProbeSet 11751329_s_at) / Fold change (ACY-1035/veh), FGFR1OP (ProbeSet 11751329_s_at) / Fold change (Aza/veh), VPS36 (ProbeSet 11739960_a_at) / Fold change (ACY-1035/veh), VPS36 (ProbeSet 11739960_a_at) / RFU SYPL1 (11715823_x_at) / Fold change /veh SYPL1 (11715823_x_at) / RFU IGFBP7 (11715501_s_at) / Fold change /veh IGFBP7 (11715501_s_at) / RFU REEP3 (11722064_at) / Fold change /veh REEP3 (11722064_at) / RFU IGLL1 (11728026_x_at) / Fold change /veh IGLL1 (11728026_x_at): dose or concentration left out as unconfirmed
Settings: ProbeSet 11734937_a_at; LIST B

Nc1ccc(-c2cccs2)cc1NC(=O)c1ccc2c(c1)cc(C1CC1)n2CCN1CCOCC1 [ACY-1035]
Fold change vs veh, CNOT2: 0.83
